Assays:
AsPC-1 cells = target: T1, AsPC-1 cells (Homo sapiens, UniProt P01116, G12D); assay: Cellular phospho-ERK assay, AsPC-1 cells (KRAS G12D); assay type: cell-based; conditions: 2 hours, read-out: AsPC1 pERK IC50
T1 construct: p-ERK/total ERK AlphaSureFire read-out
Procedure, shortened: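 Compound was titrated 10-point in 3-fold steps (top 30 μM) on KRAS G12D homozygous pancreatic lines PANC08.13 and AsPC-1 for 2 h at 37 °C. The p-ERK/total ERK ratio was measured by multiplex AlphaLISA SureFire and fitted with a 4-parameter logistic model to give IC50.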

HRAS = HRAS (Homo sapiens, UniProt P01112); assay: SOS-catalyzed nucleotide exchange assay, HRAS (Procedure A); assay type: biochemical; conditions: GNE
From the text: (§1) Procedure for SOS-Catalyzed Nucleotide Exchange Assay for KRAS-WT, G12C/D/V, G13D, HRAS, and NRAS (Procedure A)
(§2) Recombinant KRAS-G12C protein used in this assay has an additional triple mutation (C51S/C80L/C118S). Whereas KRAS-WT, G12D/V, G13D, HRAS and NRAS are in context of their WT protein sequence background. Specifically, the SOS-catalyzed nucleotide exchange assay utilizes a preformed TR-FRET complex containing a specific biotinylated RAS protein (KRAS-WT, G12C/V/D, G13D, HRAS, NRAS; described above) with Bodipy-GDP, and Terbium-streptavidin. Compounds are preincubated with this complex for 60 minutes. Subsequently, recombinant human SOS protein and unlabeled GTP are added to initiate the exchange reaction. Small molecule inhibitors stabilize the Bodipy-GDP complex whereas the untreated protein rapidly exchanges Bodipy-GDP for unlabeled GTP resulting in reduced TR-FRET signal.
(§3) To assemble the preformed TR-FRET complexes, each biotinylated RAS protein is diluted to 2 μM in an EDTA Buffer (20 mM HEPES pH 7.5, 50 mM sodium chloride, 10 mM EDTA, and 0.01% Tween) and incubated at room temperature for one hour. This mixture is then further diluted to 90 nM in an Assay Buffer (20 mM HEPES pH 7.5, 150 mM sodium chloride, 10 mM magnesium chloride, and 0.005% Tween) containing 15 nM of Terbium-Streptavidin (Invitrogen, catalog #PV3577) and 900 nM of Bodipy-GDP (Invitrogen, catalog #G22360) and incubated at room temperature for six hours. It should be noted that this preformed TR-FRET complex for each of the RAS protein were made ahead of time, aliquoted and stored at −80° C. until the day of the experiment.
(§4) Each test compound (10 mM stock in DMSO) is diluted in DMSO to make a final-10-point, 3-fold dilution and is acoustically dispensed into a 384-well assay plate (Corning, catalog #3820) using an Echo 550 (Labcyte). Each well of the assay plate receives 3 μL of a specific 3×RAS preformed TR-FRET complex and 3 μL of Assay Buffer and is incubated at room temperature for 60 minutes (preincubation time). Each well then receives 3 μL of 3× recombinant human SOS protein and GTP (Sigma, G8877) in Assay Buffer and is incubated at room temperature for 30 minutes (G13D), 60 minutes (KRAS WT/G12C/D, H/NRAS) or 90 minutes for G12V. The final reaction in each well of 9 μL consists of 3 mM GTP, specific Ras and SOS proteins in the following concentrations: KRAS-G12C/SOS=3 nM/40 nM, KRAS-WT and G12D/SOS=1 nM/40 nM, KRAS-G12V/SOS=1.25 nM/160 nM, KRAS-G13D/SOS=1.25 nM/0 nM, HRAS and NRAS=1.25 nM/40 nM.
(§5) The time-resolved fluorescence resonance energy transfer (TR-FRET) signal is measured on an Envision (PerkinElmer) plate reader: Excitation filter=340 nm; emission1=495 nm; emission2=520 nm; dichroic mirror=D400/D505; delay time=[…]. The signal of each well is determined as the ratio of the emission at 520 nm to that at 495 nm. Percent effect of each well is determined after normalization to control wells containing DMSO (no effect) or a saturating concentration of inhibitor (max effect). The apparent effect as a function of compound concentration is fit to a four-parameter logistic equation.
(§6) For Example No. 14, nucleotide exchange assays for KRAS G12D, WT, G12C, and G12V were performed according to Procedure B. All the other compounds were tested according to Procedure A.

KRAS G12V = KRAS G12V (Homo sapiens, UniProt P01116, G12V); assay: SOS-catalyzed nucleotide exchange assay, KRAS G12V (Procedure A); assay type: biochemical; conditions: GNE
Procedure, shortened: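 Biotinylated KRAS G12V was loaded with Bodipy-GDP alongside Terbium-streptavidin to form a TR-FRET complex, which was preincubated with compounds for 60 minutes in 384-well plates. Human SOS protein and unlabeled GTP were then added for 90 minutes, giving final concentrations of 1.25 nM KRAS-G12V, 160 nM SOS and 3 mM GTP. The 520/495 nm emission ratio was read on an Envision.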

KRAS WT = KRAS WT (Homo sapiens, UniProt P01116); assay: SOS-catalyzed nucleotide exchange assay, KRAS WT (Procedure A); assay type: biochemical; conditions: GNE
Procedure, shortened: (§7)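 60 min cpd preinc. w/ RAS–Bodipy-GDP–Tb-SA complex; + hSOS/GTP (3 mM final), RT. G12C 3 nM RAS/40 nM SOS; WT, G12D 1 nM/40 nM; 60 min rxn. G13D 1.25 nM, no SOS, 30 min rxn. HEPES pH 7.5, 10 mM MgCl2. Ratio 520/495, norm. to DMSO/max-inhibitor ctrls.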

KRAS G12D = KRAS G12D (Homo sapiens, UniProt P01116, G12D); assay: SOS-catalyzed nucleotide exchange assay, KRAS G12D (Procedure A); assay type: biochemical; conditions: guanine nucleotide exchange (GNE)
Procedure, shortened: as §7

NRAS = NRAS (Homo sapiens, UniProt P01111); assay: SOS-catalyzed nucleotide exchange assay, NRAS (Procedure A); assay type: biochemical; conditions: GNE
From the text: as §1, §2, §3, §4, §5, §6

KRAS G12C = KRAS G12C (Homo sapiens, UniProt P01116, C118S/C51S/C80L/G12C); assay: SOS-catalyzed nucleotide exchange assay, KRAS G12C (Procedure A); assay type: biochemical; conditions: GNE
From the text: as §1, §2, §3, §4, §5, §6

KRAS G13D = KRAS G13D (Homo sapiens, UniProt P01116, G13D); assay: SOS-catalyzed nucleotide exchange assay, KRAS G13D (Procedure A); assay type: biochemical; conditions: GNE
From the text: as §1, §2, §3, §4, §5, §6

Chain of KRAS G13D (P01116 with tags, fused parts or gaps isoform P01116-2 G13D): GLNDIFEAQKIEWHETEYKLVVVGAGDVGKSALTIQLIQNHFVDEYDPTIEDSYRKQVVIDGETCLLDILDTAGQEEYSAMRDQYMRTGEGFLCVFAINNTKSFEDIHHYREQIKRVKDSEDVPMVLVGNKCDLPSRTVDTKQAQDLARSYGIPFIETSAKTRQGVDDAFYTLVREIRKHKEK
Chain of KRAS WT (P01116 with tags, fused parts or gaps isoform P01116-2): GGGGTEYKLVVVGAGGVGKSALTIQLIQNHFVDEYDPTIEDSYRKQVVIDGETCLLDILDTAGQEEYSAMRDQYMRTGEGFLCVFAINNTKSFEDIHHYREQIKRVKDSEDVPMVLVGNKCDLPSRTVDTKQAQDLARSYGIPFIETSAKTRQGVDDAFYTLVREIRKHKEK
Chain of NRAS (P01111 with tags, fused parts or gaps): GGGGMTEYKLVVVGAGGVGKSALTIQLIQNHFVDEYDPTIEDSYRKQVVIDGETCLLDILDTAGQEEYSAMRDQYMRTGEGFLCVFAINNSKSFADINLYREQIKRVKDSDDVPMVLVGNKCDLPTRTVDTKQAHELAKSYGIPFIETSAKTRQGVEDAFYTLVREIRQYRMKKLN
Chain of KRAS G12D (P01116 with tags, fused parts or gaps isoform P01116-2 G12D): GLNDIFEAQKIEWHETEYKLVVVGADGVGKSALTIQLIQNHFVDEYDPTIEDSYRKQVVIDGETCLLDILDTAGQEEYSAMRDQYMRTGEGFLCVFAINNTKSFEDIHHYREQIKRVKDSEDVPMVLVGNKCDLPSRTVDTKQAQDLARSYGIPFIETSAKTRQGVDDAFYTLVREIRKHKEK
T1 sequence (P01116 1-188 isoform P01116-2 G12D): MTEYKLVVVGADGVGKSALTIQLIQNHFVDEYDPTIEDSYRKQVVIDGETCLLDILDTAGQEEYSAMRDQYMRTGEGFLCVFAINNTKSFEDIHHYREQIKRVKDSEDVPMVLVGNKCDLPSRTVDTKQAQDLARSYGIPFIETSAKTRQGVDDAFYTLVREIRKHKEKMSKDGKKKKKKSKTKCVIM
Chain of KRAS G12V (P01116 with tags, fused parts or gaps isoform P01116-2 G12V): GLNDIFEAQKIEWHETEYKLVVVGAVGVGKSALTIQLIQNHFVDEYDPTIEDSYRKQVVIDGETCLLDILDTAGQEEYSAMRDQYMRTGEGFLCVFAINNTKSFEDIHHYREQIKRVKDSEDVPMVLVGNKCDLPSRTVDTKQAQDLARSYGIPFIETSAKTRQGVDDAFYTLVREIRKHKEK
Chain of KRAS G12C (P01116 with tags, fused parts or gaps isoform P01116-2 G12C/C51S/C80L/C118S): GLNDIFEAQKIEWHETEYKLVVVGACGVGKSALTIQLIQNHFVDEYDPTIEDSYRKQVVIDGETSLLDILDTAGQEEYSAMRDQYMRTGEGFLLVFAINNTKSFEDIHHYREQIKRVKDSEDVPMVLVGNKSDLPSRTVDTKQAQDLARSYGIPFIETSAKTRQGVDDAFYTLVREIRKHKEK
Chain of HRAS (P01112 with tags, fused parts or gaps): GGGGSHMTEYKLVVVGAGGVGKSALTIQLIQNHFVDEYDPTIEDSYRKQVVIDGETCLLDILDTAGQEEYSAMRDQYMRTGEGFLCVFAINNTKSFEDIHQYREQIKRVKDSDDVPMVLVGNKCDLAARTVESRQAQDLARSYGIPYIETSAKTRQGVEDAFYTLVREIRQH

SMILES | IC50 (AsPC-1 cells) | IC50 (HRAS) | IC50 (KRAS G12V) | IC50 (KRAS WT) | IC50 (KRAS G12D) | IC50 (NRAS) | IC50 (KRAS G12C) | IC50 (KRAS G13D)
Cc1cc2[nH]ncc2c(-c2nccc3c2sc2nc(OC[C@@]45CCCN4C[C@H](F)C5)nc(N4C[C@@H]5C[C@H]4CN5)c23)c1C(F)(F)F [Ex-69, 4-((1S,4S)-2,5-diazabicyclo[2.2.1]heptan-2-yl)-2-(((2R,7aS)-2-fluorotetrahydro-1H-pyrrolizin-7a(5H)-yl)methoxy)-8-(6-methyl-5-(trifluoromethyl)-1H-indazol-4-yl)pyrido[4′,3′:4,5]thieno[2,3-d]pyrimidine] | 1.54 µM | > 11.1 µM | > 11.1 µM | 4.91 µM | 0.0356 µM | > 11.1 µM | 1.74 µM | 1.21 µM
Cc1cc2[nH]ncc2c(-c2nccc3c2sc2nc(OC[C@@]45CCCN4C[C@H](F)C5)nc(N4CCC5CCC(C4)N5)c23)c1C(F)(F)F (stereo partly drawn) [Ex-72, 4-(3,9-diazabicyclo[4.2.1]nonan-3-yl)-2-(((2R,7aS)-2-fluorotetrahydro-1H-pyrrolizin-7a(5H)-yl)methoxy)-8-(6-methyl-5-(trifluoromethyl)-1H-indazol-4-yl)pyrido[4′,3′:4,5]thieno[2,3-d]pyrimidine] | > 30 µM | > 11.1 µM | > 11.1 µM | > 11.1 µM | 5.3 µM | > 11.1 µM | > 11.1 µM | 2.62 µM
Cc1cc2[nH]ncc2c(-c2nccc3c2sc2nc(OC[C@@]45CCCN4C[C@H](F)C5)nc(NCC4(N(C)C)CCC4)c23)c1C(F)(F)F [Ex-74, N-((1-(dimethylamino)cyclobutyl)methyl)-2-(((2R,7aS)-2-fluorotetrahydro-1H-pyrrolizin-7a(5H)-yl)methoxy)-8-(6-methyl-5-(trifluoromethyl)-1H-indazol-4-yl)pyrido[4′,3′:4,5]thieno[2,3-d]pyrimidin-4-amine] | 12.1 µM | > 11.1 µM | > 11.1 µM | > 11.1 µM | 1.3 µM | > 11.1 µM | > 11.1 µM | 2.88 µM
Cc1cc2[nH]ncc2c(-c2nccc3c2sc2nc(OC[C@@]45CCCN4C[C@H](F)C5)nc(N4C[C@H]5CC[C@@](C)(C4)N5)c23)c1C(F)(F)F [Ex-76, 2-(((2R,7aS)-2-fluorotetrahydro-1H-pyrrolizin-7a(5H)-yl)methoxy)-8-(6-methyl-5-(trifluoromethyl)-1H-indazol-4-yl)-4-((1S,5R)-1-methyl-3,8-diazabicyclo[3.2.1]octan-3-yl)pyrido[4′,3′:4,5]thieno[2,3-d]pyrimidine] | 0.397 µM | > 11.1 µM | 6.35 µM | 8.27 µM | 0.0263 µM | > 11.1 µM | 1.04 µM | 1.81 µM
Cc1cc2[nH]ncc2c(-c2nncc3c2sc2nc(OC[C@@]45CCCN4C[C@H](F)C5)nc(N4C[C@H]5CC[C@@H](C4)N5)c23)c1C(F)(F)F [Ex-77, 4-((1R,5S)-3,8-diazabicyclo[3.2.1]octan-3-yl)-2-(((2R,7aS)-2-fluorotetrahydro-1H-pyrrolizin-7a(5H)-yl)methoxy)-8-(6-methyl-5-(trifluoromethyl)-1H-indazol-4-yl)pyrimido[5′,4′:4,5]thieno[2,3-d]pyridazine] | 0.726 µM | > 11.1 µM | 2.32 µM | 4.84 µM | 0.0171 µM | > 11.1 µM | 0.334 µM | 0.374 µM

Next, values leading:

IC50 (AsPC-1 cells) | IC50 (HRAS) | IC50 (KRAS G12V) | IC50 (KRAS WT) | IC50 (KRAS G12D) | IC50 (NRAS) | IC50 (KRAS G12C) | IC50 (KRAS G13D) | SMILES
11.1 µM | > 11.1 µM | 1.36 µM | 6.6 µM | 0.267 µM | > 11.1 µM | 1.85 µM | 3.05 µM | Cc1cc2[nH]ncc2c(-c2nccc3c2sc2nc(OC[C@@]45CCCN4C[C@H](F)C5)nc(N4C5CNCC4C5)c23)c1C(F)(F)F [Ex-68, 4-(3,6-diazabicyclo[3.1.1]heptan-6-yl)-2-(((2R,7aS)-2-fluorotetrahydro-1H-pyrrolizin-7a(5H)-yl)methoxy)-8-(6-methyl-5-(trifluoromethyl)-1H-indazol-4-yl)pyrido[4′,3′:4,5]thieno[2,3-d]pyrimidine]
5.11 µM | > 11.1 µM | 9.75 µM | 7.5 µM | 0.836 µM | > 11.1 µM | 0.948 µM | 2.26 µM | Cc1cc2[nH]ncc2c(-c2nccc3c2sc2nc(OC[C@@]45CCCN4C[C@H](F)C5)nc(N4C[C@H]5C[C@@H]4CN5)c23)c1C(F)(F)F [Ex-70, 4-((1R,4R)-2,5-diazabicyclo[2.2.1]heptan-2-yl)-2-(((2R,7aS)-2-fluorotetrahydro-1H-pyrrolizin-7a(5H)-yl)methoxy)-8-(6-methyl-5-(trifluoromethyl)-1H-indazol-4-yl)pyrido[4′,3′:4,5]thieno[2,3-d]pyrimidine]
0.885 µM | > 11.1 µM | 5.16 µM | 8.09 µM | 0.0348 µM | > 11.1 µM | 1.1 µM | 2.51 µM | Cc1cc2[nH]ncc2c(-c2nccc3c2sc2nc(OC[C@@]45CCCN4C[C@H](F)C5)nc(N4[C@@H]5CC[C@H]4CNC5)c23)c1C(F)(F)F [Ex-71, 4-((1R,5S)-3,8-diazabicyclo[3.2.1]octan-8-yl)-2-(((2R,7aS)-2-fluorotetrahydro-1H-pyrrolizin-7a(5H)-yl)methoxy)-8-(6-methyl-5-(trifluoromethyl)-1H-indazol-4-yl)pyrido[4′,3′:4,5]thieno[2,3-d]pyrimidine]
4.79 µM | > 11.1 µM | > 11.1 µM | > 11.1 µM | 1.39 µM | > 11.1 µM | > 11.1 µM | > 11.1 µM | Cc1cc2[nH]ncc2c(-c2nccc3c2sc2nc(OC[C@@]45CCCN4C[C@H](F)C5)nc(N4[C@@H]5CC[C@H]4CN(C)C5)c23)c1C(F)(F)F [Ex-73, 2-(((2R,7aS)-2-fluorotetrahydro-1H-pyrrolizin-7a(5H)-yl)methoxy)-8-(6-methyl-5-(trifluoromethyl)-1H-indazol-4-yl)-4-((1R,5S)-3-methyl-3,8-diazabicyclo[3.2.1]octan-8-yl)pyrido[4′,3′:4,5]thieno[2,3-d]pyrimidine]
